Measurements as given in ChEMBL document CHEMBL4507282, “Data for DCP probe BI-1950” (2021).

Tests used:
[1] = tested on: Receptor-type tyrosine-protein kinase FLT3 (Homo sapiens), P36888 [R834Q]; conditions: Compound concentration 1000.0 nM
[2] = tested on: Hepatocyte growth factor receptor (Homo sapiens), P08581 [M1250T]; conditions: Compound concentration 1000.0 nM
[3] = target: Tyrosine-protein kinase ZAP-70 (Homo sapiens) (UniProt P43403); conditions: Compound concentration 1000.0 nM
[4] = target: Tyrosine-protein kinase Fer (Homo sapiens) (UniProt P16591); conditions: Compound concentration 1000.0 nM
[5] = target: Serine/threonine-protein kinase MAK (Homo sapiens) (UniProt P20794); conditions: Compound concentration 1000.0 nM
[6] = target: Cyclin-dependent kinase 11A (Homo sapiens) (UniProt Q9UQ88); conditions: Compound concentration 1000.0 nM
[7] = target: Serine/threonine-protein kinase Nek2 (Homo sapiens) (UniProt P51955); conditions: Compound concentration 1000.0 nM
[8] = target: Casein kinase I isoform gamma-2 (Homo sapiens) (UniProt P78368); conditions: Compound concentration 1000.0 nM
[9] = target: Casein kinase I isoform delta (Homo sapiens) (UniProt P48730); conditions: Compound concentration 1000.0 nM
[10] = target: T1, D(4) dopamine receptor (Homo sapiens) (UniProt P21917); conditions: Compound concentration 10.0 uM
T1 sequence (whole entry): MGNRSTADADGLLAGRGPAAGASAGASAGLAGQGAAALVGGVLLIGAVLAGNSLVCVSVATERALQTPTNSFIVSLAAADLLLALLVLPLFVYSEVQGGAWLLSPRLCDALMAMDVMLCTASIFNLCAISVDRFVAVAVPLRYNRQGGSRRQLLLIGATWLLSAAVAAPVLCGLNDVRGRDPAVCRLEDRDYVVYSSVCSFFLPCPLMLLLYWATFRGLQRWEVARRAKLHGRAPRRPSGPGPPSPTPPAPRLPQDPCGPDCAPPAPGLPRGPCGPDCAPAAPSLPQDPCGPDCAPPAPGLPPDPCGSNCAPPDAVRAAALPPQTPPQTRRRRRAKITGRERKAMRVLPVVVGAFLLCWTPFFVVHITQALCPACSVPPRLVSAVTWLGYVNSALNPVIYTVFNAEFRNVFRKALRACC

[11] = target: Fibroblast growth factor receptor 1 (Homo sapiens) (UniProt P11362); conditions: Compound concentration 1000.0 nM
[12] = target: Serine/threonine-protein kinase DCLK3 (Homo sapiens) (UniProt Q9C098); conditions: Compound concentration 1000.0 nM
[13] = target: Serine/threonine-protein kinase ULK2 (Homo sapiens) (UniProt Q8IYT8); conditions: Compound concentration 1000.0 nM
[14] = target: Calcium/calmodulin-dependent protein kinase kinase 2 (Homo sapiens) (UniProt Q96RR4); conditions: Compound concentration 1000.0 nM
[15] = target: RAC-beta serine/threonine-protein kinase (Homo sapiens) (UniProt P31751); conditions: Compound concentration 1000.0 nM
[16] = target: Serine/threonine-protein kinase RIO3 (Homo sapiens) (UniProt O14730); conditions: Compound concentration 1000.0 nM
[17] = target: Cyclin-dependent kinase-like 3 (Homo sapiens) (UniProt Q8IVW4); conditions: Compound concentration 1000.0 nM
[18] = target: Tyrosine-protein kinase TXK (Homo sapiens) (UniProt P42681); conditions: Compound concentration 1000.0 nM
[19] = target: Tyrosine-protein kinase HCK (Homo sapiens) (UniProt P08631); conditions: Compound concentration 1000.0 nM
[20] = target: Serine/threonine-protein kinase 36 (Homo sapiens) (UniProt Q9NRP7); conditions: Compound concentration 1000.0 nM
[21] = target: Serine/threonine-protein kinase Chk1 (Homo sapiens) (UniProt O14757); conditions: Compound concentration 1000.0 nM
[22] = target: Non-receptor tyrosine-protein kinase TYK2 (Homo sapiens) (UniProt P29597); conditions: Compound concentration 1000.0 nM
[23] = target: High affinity nerve growth factor receptor (Homo sapiens) (UniProt P04629); conditions: Compound concentration 1000.0 nM
[24] = target: 5-hydroxytryptamine receptor 1B (Homo sapiens) (UniProt P28222); conditions: Compound concentration 10.0 uM
[25] = target: Maternal embryonic leucine zipper kinase (Homo sapiens) (UniProt Q14680); conditions: Compound concentration 1000.0 nM
[26] = target: Non-receptor tyrosine-protein kinase TYK2 (Homo sapiens) (UniProt P29597); conditions: Compound concentration 1000.0 nM; remark: listed apart in the source
[27] = target: Proto-oncogene tyrosine-protein kinase receptor Ret (Homo sapiens) (UniProt P07949); conditions: Compound concentration 1000.0 nM
[28] = target: Dual specificity mitogen-activated protein kinase kinase 6 (Homo sapiens) (UniProt P52564); conditions: Compound concentration 1000.0 nM
[29] = target: Leucine-rich repeat serine/threonine-protein kinase 2 (Homo sapiens) (UniProt Q5S007); conditions: Compound concentration 1000.0 nM
[30] = tested on: Epidermal growth factor receptor (Homo sapiens), P00533 [L858R,T790M]; conditions: Compound concentration 1000.0 nM
[31] = tested on: Mast/stem cell growth factor receptor Kit (Homo sapiens), P10721 [V559D,V654A]; conditions: Compound concentration 1000.0 nM
[32] = target: Cyclin-dependent kinase 11B (Homo sapiens) (UniProt P21127); conditions: Compound concentration 1000.0 nM
[33] = tested on: Hepatocyte growth factor receptor (Homo sapiens), P08581 [Y1235D]; conditions: Compound concentration 1000.0 nM
[34] = target: Receptor-type tyrosine-protein kinase FLT3 (Homo sapiens) (UniProt P36888); conditions: Compound concentration 1000.0 nM
[35] = target: Vascular endothelial growth factor receptor 3 (Homo sapiens) (UniProt P35916); conditions: Compound concentration 1000.0 nM
[36] = target: Mitogen-activated protein kinase 15 (Homo sapiens) (UniProt Q8TD08); conditions: Compound concentration 1000.0 nM
[37] = target: MAP kinase-interacting serine/threonine-protein kinase 2 (Homo sapiens) (UniProt Q9HBH9); conditions: Compound concentration 1000.0 nM
[38] = tested on: Epidermal growth factor receptor (Homo sapiens), P00533 [UNDEFINED MUTATION]; conditions: Compound concentration 1000.0 nM
[39] = target: Serine/threonine-protein kinase 16 (Homo sapiens) (UniProt O75716); conditions: Compound concentration 1000.0 nM

Chain of Non-receptor tyrosine-protein kinase TYK2 (Homo sapiens) (P29597 whole entry): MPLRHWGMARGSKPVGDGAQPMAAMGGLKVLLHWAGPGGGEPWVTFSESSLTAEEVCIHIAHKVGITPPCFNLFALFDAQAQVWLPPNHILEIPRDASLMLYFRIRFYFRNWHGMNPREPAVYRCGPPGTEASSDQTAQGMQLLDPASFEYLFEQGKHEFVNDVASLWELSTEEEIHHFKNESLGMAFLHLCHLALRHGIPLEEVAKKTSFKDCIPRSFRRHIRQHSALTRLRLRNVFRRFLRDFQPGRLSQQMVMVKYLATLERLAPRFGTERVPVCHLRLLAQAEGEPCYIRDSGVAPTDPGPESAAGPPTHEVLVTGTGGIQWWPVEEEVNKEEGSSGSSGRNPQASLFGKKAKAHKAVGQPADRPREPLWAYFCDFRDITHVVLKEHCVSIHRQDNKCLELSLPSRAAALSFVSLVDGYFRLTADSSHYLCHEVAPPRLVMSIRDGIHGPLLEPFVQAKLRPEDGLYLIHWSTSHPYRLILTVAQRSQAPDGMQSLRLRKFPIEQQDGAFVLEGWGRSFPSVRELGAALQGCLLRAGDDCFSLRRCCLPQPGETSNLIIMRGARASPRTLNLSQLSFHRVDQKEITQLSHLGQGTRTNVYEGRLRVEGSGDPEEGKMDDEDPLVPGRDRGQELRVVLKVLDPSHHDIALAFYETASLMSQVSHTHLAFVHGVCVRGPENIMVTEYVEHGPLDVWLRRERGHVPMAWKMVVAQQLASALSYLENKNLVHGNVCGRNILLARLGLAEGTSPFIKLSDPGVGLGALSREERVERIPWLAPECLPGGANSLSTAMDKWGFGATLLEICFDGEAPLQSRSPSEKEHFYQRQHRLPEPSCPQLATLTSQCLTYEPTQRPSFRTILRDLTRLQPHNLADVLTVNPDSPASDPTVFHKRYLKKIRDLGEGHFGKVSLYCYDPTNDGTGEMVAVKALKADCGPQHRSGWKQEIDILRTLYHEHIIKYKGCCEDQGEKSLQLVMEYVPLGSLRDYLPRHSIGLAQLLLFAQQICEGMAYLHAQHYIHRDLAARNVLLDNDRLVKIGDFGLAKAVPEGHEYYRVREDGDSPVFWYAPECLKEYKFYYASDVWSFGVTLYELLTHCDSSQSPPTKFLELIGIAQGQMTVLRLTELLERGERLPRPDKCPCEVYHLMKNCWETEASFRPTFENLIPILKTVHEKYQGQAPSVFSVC
Chain of Casein kinase I isoform gamma-2 (Homo sapiens) (P78368 whole entry, looked up, canonical isoform): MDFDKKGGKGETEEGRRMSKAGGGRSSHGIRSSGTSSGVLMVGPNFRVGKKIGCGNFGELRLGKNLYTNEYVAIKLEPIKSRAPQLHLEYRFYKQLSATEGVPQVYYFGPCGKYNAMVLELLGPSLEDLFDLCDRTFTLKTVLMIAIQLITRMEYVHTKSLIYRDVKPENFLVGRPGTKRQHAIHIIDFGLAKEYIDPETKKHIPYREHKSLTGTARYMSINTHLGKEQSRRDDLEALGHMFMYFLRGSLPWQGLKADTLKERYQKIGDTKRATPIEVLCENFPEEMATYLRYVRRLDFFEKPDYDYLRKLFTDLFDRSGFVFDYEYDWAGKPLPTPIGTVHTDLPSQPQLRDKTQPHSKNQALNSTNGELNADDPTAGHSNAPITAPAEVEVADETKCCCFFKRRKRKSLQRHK
Chain of Tyrosine-protein kinase HCK (Homo sapiens) (P08631 2-526 limits assumed): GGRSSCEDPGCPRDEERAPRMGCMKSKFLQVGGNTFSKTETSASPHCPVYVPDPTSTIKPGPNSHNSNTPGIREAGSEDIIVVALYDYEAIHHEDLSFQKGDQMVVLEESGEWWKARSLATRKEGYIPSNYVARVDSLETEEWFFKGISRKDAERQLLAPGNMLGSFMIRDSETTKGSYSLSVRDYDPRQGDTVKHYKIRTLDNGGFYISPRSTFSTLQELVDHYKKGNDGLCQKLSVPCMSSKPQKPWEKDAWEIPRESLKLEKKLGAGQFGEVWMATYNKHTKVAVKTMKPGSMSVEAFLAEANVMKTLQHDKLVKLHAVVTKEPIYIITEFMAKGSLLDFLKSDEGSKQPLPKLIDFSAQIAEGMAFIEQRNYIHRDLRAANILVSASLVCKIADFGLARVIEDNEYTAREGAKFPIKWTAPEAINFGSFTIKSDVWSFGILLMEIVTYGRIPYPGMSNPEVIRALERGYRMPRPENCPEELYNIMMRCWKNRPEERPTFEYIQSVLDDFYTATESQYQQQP
Chain of Mast/stem cell growth factor receptor Kit (Homo sapiens), P10721 [V559D,V654A] (P10721 whole entry V559D/V654A): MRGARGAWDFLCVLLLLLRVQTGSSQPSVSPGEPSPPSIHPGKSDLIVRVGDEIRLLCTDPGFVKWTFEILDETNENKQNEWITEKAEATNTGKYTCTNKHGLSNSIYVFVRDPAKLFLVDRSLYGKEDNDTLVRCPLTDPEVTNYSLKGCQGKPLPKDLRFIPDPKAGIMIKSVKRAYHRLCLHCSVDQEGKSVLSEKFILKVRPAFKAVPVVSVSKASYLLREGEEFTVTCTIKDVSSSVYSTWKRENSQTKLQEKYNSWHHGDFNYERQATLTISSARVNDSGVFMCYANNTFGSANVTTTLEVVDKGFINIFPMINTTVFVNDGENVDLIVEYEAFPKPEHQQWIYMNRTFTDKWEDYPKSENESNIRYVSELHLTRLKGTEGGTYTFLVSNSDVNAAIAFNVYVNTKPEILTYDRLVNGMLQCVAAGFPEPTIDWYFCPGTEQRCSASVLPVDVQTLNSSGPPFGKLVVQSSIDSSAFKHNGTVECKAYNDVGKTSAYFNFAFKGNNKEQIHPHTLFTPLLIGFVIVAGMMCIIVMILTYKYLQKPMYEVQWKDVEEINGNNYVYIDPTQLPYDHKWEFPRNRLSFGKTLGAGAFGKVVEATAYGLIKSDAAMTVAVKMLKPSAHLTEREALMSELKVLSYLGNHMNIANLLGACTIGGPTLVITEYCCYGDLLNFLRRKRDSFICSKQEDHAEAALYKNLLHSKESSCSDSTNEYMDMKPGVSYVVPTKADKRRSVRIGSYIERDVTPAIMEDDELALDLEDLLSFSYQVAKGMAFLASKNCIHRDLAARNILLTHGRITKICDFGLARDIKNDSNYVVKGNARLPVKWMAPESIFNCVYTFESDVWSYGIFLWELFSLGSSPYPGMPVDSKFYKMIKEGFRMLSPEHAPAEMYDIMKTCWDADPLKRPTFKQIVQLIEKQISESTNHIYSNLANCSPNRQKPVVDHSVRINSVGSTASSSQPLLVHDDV
Chain of Mitogen-activated protein kinase 15 (Homo sapiens) (Q8TD08 whole entry): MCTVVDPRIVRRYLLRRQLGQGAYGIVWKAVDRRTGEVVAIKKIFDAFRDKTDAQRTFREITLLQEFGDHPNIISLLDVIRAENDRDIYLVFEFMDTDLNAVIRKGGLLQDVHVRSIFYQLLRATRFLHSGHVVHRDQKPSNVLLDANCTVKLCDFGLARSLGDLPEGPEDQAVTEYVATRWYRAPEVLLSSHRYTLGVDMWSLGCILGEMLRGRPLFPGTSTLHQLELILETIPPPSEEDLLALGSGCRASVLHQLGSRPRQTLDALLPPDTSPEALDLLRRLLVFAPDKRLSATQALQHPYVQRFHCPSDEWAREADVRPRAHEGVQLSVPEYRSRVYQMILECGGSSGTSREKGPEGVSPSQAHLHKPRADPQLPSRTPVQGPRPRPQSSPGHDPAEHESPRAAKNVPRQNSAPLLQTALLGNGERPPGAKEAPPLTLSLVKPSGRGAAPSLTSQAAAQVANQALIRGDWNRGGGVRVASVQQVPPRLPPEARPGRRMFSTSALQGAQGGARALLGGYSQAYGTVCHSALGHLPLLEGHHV
Chain of High affinity nerve growth factor receptor (Homo sapiens) (P04629 33-796 limits assumed): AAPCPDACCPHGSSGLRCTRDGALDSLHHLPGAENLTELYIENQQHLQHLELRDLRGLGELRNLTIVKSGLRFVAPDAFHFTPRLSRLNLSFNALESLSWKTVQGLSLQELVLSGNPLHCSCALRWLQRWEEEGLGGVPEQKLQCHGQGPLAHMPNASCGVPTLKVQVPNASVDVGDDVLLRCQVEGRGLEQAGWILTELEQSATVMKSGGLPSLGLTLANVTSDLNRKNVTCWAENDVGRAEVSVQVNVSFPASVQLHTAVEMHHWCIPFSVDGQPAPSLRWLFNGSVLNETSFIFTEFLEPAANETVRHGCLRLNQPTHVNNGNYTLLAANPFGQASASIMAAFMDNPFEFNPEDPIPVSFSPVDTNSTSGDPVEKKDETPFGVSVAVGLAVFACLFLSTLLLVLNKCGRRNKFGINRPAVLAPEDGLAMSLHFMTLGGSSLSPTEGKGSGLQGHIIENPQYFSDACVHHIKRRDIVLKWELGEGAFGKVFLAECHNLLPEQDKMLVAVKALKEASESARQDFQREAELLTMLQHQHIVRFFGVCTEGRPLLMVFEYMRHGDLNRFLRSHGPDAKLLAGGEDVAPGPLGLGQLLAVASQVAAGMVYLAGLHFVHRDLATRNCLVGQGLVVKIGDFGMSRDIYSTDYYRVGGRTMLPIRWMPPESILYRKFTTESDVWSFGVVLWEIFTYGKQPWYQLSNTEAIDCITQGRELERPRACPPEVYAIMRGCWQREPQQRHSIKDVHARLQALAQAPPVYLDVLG
Chain of Tyrosine-protein kinase ZAP-70 (Homo sapiens) (P43403 whole entry): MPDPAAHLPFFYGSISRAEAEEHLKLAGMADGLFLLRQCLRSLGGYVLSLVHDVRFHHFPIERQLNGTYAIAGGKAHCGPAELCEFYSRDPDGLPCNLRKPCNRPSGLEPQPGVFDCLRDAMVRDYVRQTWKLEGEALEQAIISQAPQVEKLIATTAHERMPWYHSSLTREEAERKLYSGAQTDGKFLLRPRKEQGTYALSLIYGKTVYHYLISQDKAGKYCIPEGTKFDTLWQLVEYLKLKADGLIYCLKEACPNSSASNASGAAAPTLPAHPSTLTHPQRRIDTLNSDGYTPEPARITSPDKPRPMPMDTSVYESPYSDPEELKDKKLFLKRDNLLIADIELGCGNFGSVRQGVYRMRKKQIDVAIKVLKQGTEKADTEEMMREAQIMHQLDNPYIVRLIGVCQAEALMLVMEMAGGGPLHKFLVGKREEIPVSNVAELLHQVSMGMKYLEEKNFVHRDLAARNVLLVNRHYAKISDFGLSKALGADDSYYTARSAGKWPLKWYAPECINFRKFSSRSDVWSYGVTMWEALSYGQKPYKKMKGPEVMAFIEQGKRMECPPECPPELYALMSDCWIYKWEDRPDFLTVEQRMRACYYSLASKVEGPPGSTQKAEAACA

C[C@@]1(Cc2ccc(C#N)cc2)C(=O)N(c2cc(Cl)cc(Cl)c2)c2ncc(C(=O)NC3(c4nc(C5CCC5)no4)CC3)n21 [BI 9446]
inactive: residual activity [1] 100% | residual activity [2] 100% | residual activity [3] 90% | residual activity [4] 100% | residual activity [5] 100% | residual activity [6] 100% | residual activity [7] 83% | residual activity [8] 91% | residual activity [9] 100% | inhibition [10] 13.6% | residual activity [11] 100% | residual activity [12] 88% | residual activity [13] 100% | residual activity [14] 100% | residual activity [15] 100% | residual activity [16] 100% | residual activity [17] 100% | residual activity [18] 100% | residual activity [19] 100% | residual activity [20] 100% | residual activity [21] 90% | residual activity [22] 100% | residual activity [23] 100% | inhibition [24] 17.5% | residual activity [25] 89% | residual activity [26] 100% | residual activity [27] 100% | residual activity [28] 80% | residual activity [29] 93% | residual activity [30] 79% | residual activity [31] 85% | residual activity [32] 100% | residual activity [33] 100% | residual activity [34] 98% | residual activity [35] 100% | residual activity [36] 100% | residual activity [37] 100% | residual activity [38] 100% | residual activity [39] 100%

C[C@H](NC(=O)c1cnc2n1[C@](C)(Cc1ccc(C#N)cc1)C(=O)N2c1cc(Cl)c(F)c(Cl)c1)C(=O)NC1(c2ccccn2)CC1 [BI 1950]
inactive: residual activity [1] 90% | residual activity [2] 100% | residual activity [3] 100% | residual activity [4] 100% | residual activity [5] 100% | residual activity [6] 100% | residual activity [7] 95% | residual activity [8] 90% | residual activity [9] 100% | inhibition [10] -2.68% | residual activity [11] 100% | residual activity [12] 100% | residual activity [13] 100% | residual activity [14] 100% | residual activity [15] 100% | residual activity [16] 100% | residual activity [17] 100% | residual activity [18] 90% | residual activity [19] 100% | residual activity [20] 100% | residual activity [21] 100% | residual activity [22] 100% | residual activity [23] 98% | inhibition [24] 16.5% | residual activity [25] 86% | residual activity [26] 100% | residual activity [27] 100% | residual activity [28] 80% | residual activity [29] 100% | residual activity [30] 82% | residual activity [31] 100% | residual activity [32] 100% | residual activity [33] 100% | residual activity [34] 100% | residual activity [35] 100% | residual activity [36] 100% | residual activity [37] 100% | residual activity [38] 100% | residual activity [39] 100%
